Like-named read-outs stand apart in the source and are kept apart here.
What was measured:
senescent T cells [1] = assay: Inflammatory cytokine mRNA by real-time qPCR in responder/senescent T cells; type: cell-based, human
Method: (§1) Reverse-transcription quantitative PCR analysis. Total RNA was extracted from T cells using Trizol reagent (Invitrogen), and cDNA was transcribed using a SuperScript II RT kit (Invitrogen), both according to manufacturers' instructions. Expression levels of each gene were determined by reverse-transcription PCR using specific primers, and mRNA levels in each sample were normalized to the relative quantity of the housekeeping GAPDH or β-actin gene expression. All experiments were performed in triplicate.

senescent T cells [2] = assay: Suppressive activity of senescent T cells, [3H]-thymidine proliferation assay; type: cell-based, human; conditions: data not shown
Method: Functional proliferation assay. Proliferation assays were performed using a [^3H]-thymidine incorporation assay, as the inventors previously described (Liu et al., 2018; Ye et al., 2014; 2012; Peng et al., 2005; 2007). Naïve CD4+ T cells (1×10^5/well) purified from healthy donors were co-cultured with Treg-treated T cells at a ratio of 10:1 in 200 μl of T cell assay medium containing 2% human AB. After 56 hours of culture, [3H]-thymidine was added at a final concentration of 1 μCi/well, followed by an additional 16 hours of culture. The incorporation of [^3H]-thymidine was measured with a liquid scintillation counter.

[3] = system: naïve CD4+ and CD8+ T cells co-cultured with nTreg cells; assay: SA-β-gal staining, T cell senescence induced by Treg cells; type: cell-based, human; conditions: for senescence induction in T cells co-cultured with nTreg cells, lipid supplement: naïve CD4+ T cells, lipids 5 μM or 10 μM, 3 days
Method: Senescence associated β-galactosidase staining. Senescence associated β-galactosidase (SA-β-gal) activity in senescent T cells was detected as the inventors previously described 23,32,33. Naive CD4+ or CD8+ T cells were labeled with CFSE (4.5 μM), and co-cultured with Treg cells at a ratio of 4:1 in anti-CD3-coated 24-well plates for 3 days. Co-cultured naïve T cells were then separated from co-cultures using FACS sorting gated on CFSE positive populations, and then stained with SA-β-Gal staining reagent. […] For some experiments, naïve T cells were pretreated with the following inhibitors and then co-cultured with Treg cells. SA-β-gal expression in the co-cultured naïve T cells was determined. These inhibitors include: ACAT inhibitor Avasimable (5 μM and 10 μM), lipase inhibitor orlistat (10 μM), and cPLA2α inhibitor MAFP (1 μM and 5 μM) (Cayman Chemical); ATM inhibitor KU55933 (10 μM, Tocris Bioscience); stat1 inhibitor MTA (5 μM), stat3 inhibitor S3I-201 (10 μM) (Sigma-Aldrich); MAPK inhibitors including U0126 (10 μM) and SB203580 (10 μM) (Calbiochemistry).
(§2) Lipid supplement assay. Lysophosphatidylcholine (LPC, 16:0 LPC, 16:0 aLPC, and 16:0 pLPC), Phosphatidylethanolamine (PE, 16:0 lyso PE) and Phosphatidylserine (PS, 16:0 lyso PS) were purchased from the Avanti Polar Lipids, INC. C2-Ceramide was purchased from Sigma. All the lipids were dissolved in chloroform, evaporated under a gentle stream of nitrogen and then immediately dissolved in an ethanol vehicle (0.1%). Naïve CD4+ T cells were first treated with or without the lipids (5 μM or 10 μM) for 1 hour and then co-cultured with Treg cells at a ratio of 4:1 in anti-CD3-coated (2 μg/ml) plates for 3 days. The treated naïve CD4+ T cells were then performed SA-β-gal and Oil red O staining.

B16F10 tumor = assay: B16F10 melanoma, Pmel-1 T cell adoptive transfer therapy model in C57BL/6 mice; conditions: Pmel-1 T cells pretreated with ATK 0.5 μM 2 hours; ATK 10 mg·kg-1/mouse i.p. day 1, 4, 7, 10
[4] = system: naïve CD4+ and CD8+ T cells co-cultured with nTreg cells; assay: Oil-Red O staining, LD formation in T cells co-cultured with Treg cells; type: cell-based, human
Method: as §2
(§3) Oil-Red O staining. The treated T cells were washed in PBS (pH 7.2), fixed with 4% formaldehyde for 30 minutes, and treated with 60% isopropanol for 2-5 minutes. Cells were further stained with freshly prepared Oil-Red O staining solution (Sigma-Aldrich) in isopropanol (60%) for 5 minutes, followed by quick rinse with isopropanol (60%). The stained cells were then washed with H2O thoroughly and lipid droplets in T cells were evaluated using a light microscope.

[5] = system: naïve CD8+ T cells co-cultured with nTreg cells; assay: Lipidomics (ESI-MS/MS) of Treg-induced senescent T cells; type: cell-based, human
Method: Lipidomics analysis. Lipids from T cells were extracted by the method of Bligh and Dyer in the presence of internal standards including eicosanoic acid, 1-0-heptadecanoyl-LPC, dieicosanoyl-PC, ditetradecanoyl-PE, ditetradecanoyl-PS, N-heptadecanoyl-Cer, and cholesteryl heptadecanoate (Bligh and Dyer, 1959). Extracted lipids were resuspended in methanol/chloroform (2:1, by vol.) and analyzed by ESI-MS in the direct infusion mode at a flow rate of 3 μl/min using a Thermo Electron TSQ Quantrum Ultra® instrument. Samples were analyzed in both the positive and negative ion mode using a shotgun lipidomics approach (Han and Gross, 2005). For LPC, neutral loss (NL) scanning of 59.1 was monitored in the positive ion mode for sodiated molecular ions. NL scanning of 368.5 was performed for sodiated CE molecular species in the positive ion mode (Bowden et al., 2011). PE was derivatized to fMOC-PE species and monitored in negative ion mode using NL scanning of 222.2. Neutral loss scanning for Cer (NL 256.2), PC (NL50) and PS (NL 87) was performed in the negative ion mode (Han and Gross, 2005). Fatty acids were converted to pentafluorobenzyl esters and quantified using negative ion chemical ionization detection and gas chromatography (Quehenberger et al., 2010). Spectra were averaged over 3-5 min and processed utilizing Xcalibur® software (Thermo Electron). Individual molecular species were quantified by comparing the ion intensity of individual molecular species to that of the appropriate internal standards following corrections for type I and type II 13C isotope effects (Han and Gross, 2005). Additional corrections were made from response curves for CE molecular species (Bowden et al., 2011). Each sample was normalized to cell number, and values are expressed per million cells.

cPLA2α = assay: cPLA2α, p21 and p53 expression in Treg-treated T cells (western blot, qPCR, flow cytometry); type: cell-based, human
Method: Flow cytometry analysis. The expression markers on T cells were determined by flow cytometry analysis after surface staining or intracellular staining with anti-human specific antibodies conjugated with PE or Alexa Flour488. The human antibodies included: anti-CD27, anti-CD28, anti-phospho-ERK (Thr202/Tyr204), anti-phospho-p38 (Thr180/Tyr182), anti-phospho-STAT1 (Tyr701), anti-phospho-STAT3 (Tyr705 or Ser727), anti-phospho-ATM, anti-phospho-H2AX, anti-phospho-CHK2, anti-phospho-53BP1, and anti-cPLA2α, which were purchased from BD Biosciences, Biolegend, or Cell Signaling Technology. For Bodipy 493/503 staining (Thermo Fisher Scientific), T cells were incubated with Bodipy 493/503 (1 μg/ml) at room temperature for 15 minutes. All stained cells were analyzed on a LSR II cytometer (BD Bioscience) and data analyzed with FlowJo software (Tree Star).
Western-blotting analysis. CFSE-labeled naïve CD4+ or CD8+ T cells were co-cultured with Treg or control T cells at a ratio of 4:1 in the anti-CD3 antibody-precoated plates (2 μg/ml) for 3 days. In some experiments, T cells were pretreated with the cPLA2α inhibitor MAFP (5 M) for 24 hours, and then co-cultured with Treg cells. Treated T cells were then sorted by FACS gating on CFSE positive T cells. Whole cell lysates of the purified CD4+ T cells were prepared for western blot analyses. Western blots were developed with the Chemiluminescent Substrate (KPL, Maryland). The rabbit polyclonal antibodies used in the western blot analyses are as following: anti-cPLA2α, anti-P53, anti-P21, and anti-GAPDH. All antibodies were purchased from the Cell Signaling Technology.
as §1

[6] = system: MAPK and STAT1/STAT3 signaling; assay: Phosphorylation of p38, ERK, STAT1 and STAT3 by flow cytometry in Treg-treated CD4+ T cells; type: cell-based, human; conditions: pretreated 24 hours (KU55933 10 μM; MAFP 5 μM), Treg co-culture 3 days
naïve T cells [7] = assay: SA-β-gal staining of naïve T cells cultured with the substance alone; type: cell-based, human
Method: Senescence associated β-galactosidase staining. […] Naive CD4+ or CD8+ T cells were labeled with CFSE (4.5 μM), and co-cultured with Treg cells at a ratio of 4:1 in anti-CD3-coated 24-well plates for 3 days. Co-cultured naïve T cells were then separated from co-cultures using FACS sorting gated on CFSE positive populations, and then stained with SA-β-Gal staining reagent. For tumor-induced T cell senescence, anti-CD3 activated naïve CD4+ T cells or CD8+ T cells were co-cultured with or without tumor cells at ratio of 1:1 for 1 day and then separated and cultured for additional 3 days. For some experiments, naïve T cells were pretreated with the following inhibitors and then co-cultured with Treg cells. SA-β-gal expression in the co-cultured naïve T cells was determined. These inhibitors include: ACAT inhibitor Avasimable (5 μM and 10 μM), lipase inhibitor orlistat (10 μM), and cPLA2α inhibitor MAFP (1 μM and 5 μM) (Cayman Chemical); ATM inhibitor KU55933 (10 μM, Tocris Bioscience); stat1 inhibitor MTA (5 μM), stat3 inhibitor S3I-201 (10 μM) (Sigma-Aldrich); MAPK inhibitors including U0126 (10 μM) and SB203580 (10 μM) (Calbiochemistry).

naïve T cells [8] = assay: Oil-Red O staining of naïve T cells cultured with the substance alone; type: cell-based, human
Method: as §3

[9] = naïve CD4+ and CD8+ T cells pretreated with inhibitor 24 hours, co-cultured with nTreg 4:1, anti-CD3, 3 days
[10] = naïve CD4+ and CD8+ T cells pretreated with inhibitor 24 hours, co-cultured with nTreg 4:1, 3 days
[11] = pretreated with inhibitor 24 hours, Treg co-culture
[12] = anti-CD3 coated plates, 3 days, no Treg cells
[13] = CD8+ T cells pretreated with inhibitor 24 hours, nTreg co-culture 3 days

O=CC[C@@H](O)[C@H](O)[C@H](O)CO [2-DG]
secretion of pro-inflammatory cytokines by senescent T cells (senescent T cells [1]; senescent CD8+ T cells, 3-BrPA (30 μM) or 2-DG (2 mM), additional 1 day): significantly decreased
suppressive activity of senescent T cells on proliferation of effector T cells (senescent T cells [2]): inhibited their suppressive activity

O=C(O)C(=O)CBr [3-BrPA]
secretion of pro-inflammatory cytokines by senescent T cells (senescent T cells [1]): significantly decreased
suppressive activity of senescent T cells on proliferation of effector T cells (senescent T cells [2]): inhibited their suppressive activity

CCCCC/C=C\C/C=C\C/C=C\C/C=C\CCCC(=O)C(F)(F)F [ATK]
senescent (SA-β-gal+) T cell populations induced by Treg cells [3, 9]: can prevent T cell senescence
anti-tumor immunity and tumor immunotherapy, ATK (B16F10 tumor): enhances anti-tumor immunity and tumor immunotherapy in vivo

CCCCCCCCCCCCC/C=C/[C@@H](O)[C@H](CO)NC(C)=O [Cer, C2-Ceramide]
senescence induction in T cells co-cultured with nTreg cells, lipid supplement [3]: markedly prevented senescence induction

O=c1cc(-c2cccc3c2Sc2ccccc2S3)oc(N2CCOCC2)c1 [KU55933]
senescent (SA-β-gal+) T cell populations induced by Treg cells [3, 9]: dramatically reduced
LD formation (Oil red O+ T cell populations) induced by Treg cells [4, 10]: dramatically reduced
CE and FFA in senescent T cells ([5]; CD8+ T cells pretreated with KU55933 (10 μM) 1 day, nTreg co-culture 3 days): markedly prevented Treg-induced up-regulation of CE and FFA
cPLA2α expression in Treg-induced senescent T cells (cPLA2α; [11]): significantly decreased both mRNA and protein expression of cPLA2α
phosphorylation of p38, ERK, STAT1 and STAT3 in Treg-treated CD4+ T cells [6]: prevented phosphorylation of MAPKs and STAT1/STAT3

CSC[C@H]1O[C@@H](n2cnc3c(N)ncnc32)[C@H](O)[C@@H]1O [MTA]
senescent (SA-β-gal+) T cell populations induced by Treg cells [3, 9]: prevented senescence induction
LD formation (Oil red O+ T cell populations) induced by Treg cells [4, 10]: significantly decreased Oil red O+ T cell populations
cell senescence (SA-β-gal) in naïve T cells, substance alone (naïve T cells [7]; [12]): did not promote cell senescence
LD formation (Oil-red O) in naïve T cells, substance alone (naïve T cells [8]; [12]): did not promote cell senescence and LD formation
CE and PC in senescent T cells [5, 13]: significantly prevented the Treg-induced up-regulation of CE and down-regulation of PC
cPLA2α expression in Treg-induced senescent T cells (cPLA2α; [11]): dramatically suppressed the enhanced cPLA2α expression

Cc1ccc(S(=O)(=O)OCC(=O)Nc2ccc(C(=O)O)c(O)c2)cc1 [S3I-201]
senescent (SA-β-gal+) T cell populations induced by Treg cells [3, 9]: prevented senescence induction
LD formation (Oil red O+ T cell populations) induced by Treg cells [4, 10]: significantly decreased Oil red O+ T cell populations
cell senescence (SA-β-gal) in naïve T cells, substance alone (naïve T cells [7]; [12]): did not promote cell senescence
LD formation (Oil-red O) in naïve T cells, substance alone (naïve T cells [8]; [12]): did not promote cell senescence and LD formation
CE and PC in senescent T cells [5, 13]: significantly prevented the Treg-induced up-regulation of CE and down-regulation of PC
cPLA2α expression in Treg-induced senescent T cells (cPLA2α; [11]): dramatically suppressed the enhanced cPLA2α expression

C[S+]([O-])c1ccc(-c2nc(-c3ccncc3)c(-c3ccc(F)cc3)[nH]2)cc1 (stereo not shown) [SB203580]
senescent (SA-β-gal+) T cell populations induced by Treg cells [3]: prevented senescence induction
LD formation (Oil red O+ T cell populations) induced by Treg cells [4]: significantly decreased Oil red O+ T cell populations
cell senescence (SA-β-gal) in naïve T cells, substance alone (naïve T cells [7]): did not promote cell senescence
LD formation (Oil-red O) in naïve T cells, substance alone (naïve T cells [8]): did not promote cell senescence and LD formation
CE and PC in senescent T cells [5]: significantly prevented the Treg-induced up-regulation of CE and down-regulation of PC
cPLA2α expression in Treg-induced senescent T cells (cPLA2α): dramatically suppressed the enhanced cPLA2α expression

N#CC(=C(/N)Sc1ccccc1N)/C(C#N)=C(\N)Sc1ccccc1N [U0126]
senescent (SA-β-gal+) T cell populations induced by Treg cells [3]: prevented senescence induction
LD formation (Oil red O+ T cell populations) induced by Treg cells [4]: significantly decreased Oil red O+ T cell populations
cell senescence (SA-β-gal) in naïve T cells, substance alone (naïve T cells [7]): did not promote cell senescence
LD formation (Oil-red O) in naïve T cells, substance alone (naïve T cells [8]): did not promote cell senescence and LD formation
CE and PC in senescent T cells [5]: significantly prevented the Treg-induced up-regulation of CE and down-regulation of PC
cPLA2α expression in Treg-induced senescent T cells (cPLA2α): dramatically suppressed the enhanced cPLA2α expression

CC(C)c1cc(C(C)C)c(CC(=O)NS(=O)(=O)Oc2c(C(C)C)cccc2C(C)C)c(C(C)C)c1 [avasimible]
senescent (SA-β-gal+) T cell populations induced by Treg cells [3, 9]: dramatically reduced
LD formation (Oil red O+ T cell populations) induced by Treg cells [4, 10]: dramatically reduced
cell senescence (SA-β-gal) in naïve T cells, substance alone (naïve T cells [7]; [12]): does not induce cell senescence
LD formation (Oil-red O) in naïve T cells, substance alone (naïve T cells [8]; [12]): does not induce cell senescence and LD formation
total and sub-fractions of CE in senescent T cells ([5]; CD8+ T cells pretreated 24 hours, nTreg co-culture 3 days): did not significantly down-regulate total and sub-fractions of CE

CCCCCCCCCCC[C@@H](C[C@@H]1OC(=O)[C@H]1CCCCCC)OC(=O)[C@H](CC(C)C)NC=O [orlistat]
cell senescence (SA-β-gal) in naïve T cells, substance alone (naïve T cells [7]; [12]): dramatically increased cell senescence
LD formation (Oil-red O) in naïve T cells, substance alone (naïve T cells [8]; [12]): promoted LD formation

Lysophosphatidylcholine [LPC]
senescence induction in T cells co-cultured with nTreg cells, lipid supplement [3]: markedly prevented senescence induction

Phosphatidylethanolamine [PE]
senescence induction in T cells co-cultured with nTreg cells, lipid supplement [3]: markedly prevented senescence induction

Phosphatidylserine [PS]
senescence induction in T cells co-cultured with nTreg cells, lipid supplement [3]: markedly prevented senescence induction
